Data on 26 compounds can be found in patent US7109243B2 (IRM LLC, priority 2003, dated 2006).

One assay addresses T1, Cathepsin K (Homo sapiens, UniProt P43235).
T1 sequence (P43235 115-329): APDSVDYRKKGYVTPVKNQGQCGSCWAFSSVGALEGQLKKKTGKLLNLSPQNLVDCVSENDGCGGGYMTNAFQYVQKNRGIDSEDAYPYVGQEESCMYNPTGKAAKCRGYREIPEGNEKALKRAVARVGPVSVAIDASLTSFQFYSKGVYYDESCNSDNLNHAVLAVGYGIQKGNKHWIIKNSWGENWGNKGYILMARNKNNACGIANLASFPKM
Description: Cathepsin K inhibition assay (fluorogenic peptide substrate); selectivity ratio vs cathepsin S. The format is biochemical. Conditions: ratio of cathepsin K inhibition constant to cathepsin S inhibition constant; Table II. The method in brief: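 Inhibition constants for competitive inhibitors come from apparent values fitted to enzyme progress curves. Substrate, acetyl-Lys-His-Pro-Lys-aminocarbamoylcoumarin (40 μM final), starts the reaction; fluorescence rise read at 380 nm excitation, 450 nm emission. Selectivity ratio: other cathepsin constant over cathepsin S constant.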

The target in the next assay is Cathepsin S (Homo sapiens, UniProt P25774). Description: Cathepsin S inhibition assay (fluorogenic peptide substrate). The format is biochemical. To be noted: Table II, compounds of Formula I; read-out: Ki Cat. S. The method in brief:
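Ki values come from nonlinear fitting of inhibited hydrolysis rates, taking free and total inhibitor concentrations as equal. Rates measured as rising fluorescence at 380/450 nm after reaction start with 50 μM final acetyl-HPVK-aminocarbamoylcoumarin.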

Chain of Cathepsin S (P25774 115-331, species assumed): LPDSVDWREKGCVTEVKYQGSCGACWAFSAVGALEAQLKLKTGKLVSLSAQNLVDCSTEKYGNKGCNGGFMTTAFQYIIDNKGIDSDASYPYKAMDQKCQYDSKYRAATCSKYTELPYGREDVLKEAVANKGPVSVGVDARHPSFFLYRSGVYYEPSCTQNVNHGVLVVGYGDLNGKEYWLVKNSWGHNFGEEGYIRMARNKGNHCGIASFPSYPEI

The Ki is a measure of affinity in units of concentration, obtained from inhibition or displacement. For the compound `O=C(Cc1nnn[nH]1)N[C@@H](CC1CCCCC1)C(=O)NCCNc1ccc(F)cc1` [Compound 297, 3-Cyclohexyl-N-[2-(4-fluoro-phenylamino)-ethyl]-2-(S)-(2-1H-tetrazol-5-yl-acetylamino)-propionamide], the “Selectivity for Cat. S over Cat. K” value on Cathepsin K was “++ (++, >100)”. On Cathepsin S, the Ki is under 1 µM.
Consider `O=C(N[C@@H](CC1CCCCC1)C(=O)NCCNc1ccc(F)cc1)C1CC1` [Compound 298, Cyclopropanecarboxylic acid (S)-{2-cyclohexyl-1-[2-(4-fluoro-phenylamino)-ethylcarbamoyl]-ethyl}-amide], for which, on Cathepsin K, the “Selectivity for Cat. S over Cat. K” value was “++ (++, >100)”. Moreover, on Cathepsin S, the Ki was under 0.1 µM.
With `CS(=O)(=O)Nc1ccc(C(=O)N[C@@H](CC2CCCCC2)C(=O)NCCNc2ccc(F)cc2)cc1` [Compound 299, N-(S)-{2-cyclohexyl-1-[2-(4-fluoro-phenylamino)-ethylcarbamoyl]-ethyl}-4-methanesulfonylamino-benzamide], the “Selectivity for Cat. S over Cat. K” value at Cathepsin K is given as “+ (+, >10)”. Besides, on Cathepsin S, the Ki is under 0.1 µM.
`COc1ccc(NCCNC(=O)[C@H](Cc2ccc(Oc3ccc(Cl)cc3)cc2)NC(=O)c2cccc(C)c2)cc1` [Compound 300, (S)-N-{2-[4-(4-Chloro-phenoxy)-phenyl]-1-[2-(4-methoxy-phenylamino)-ethylcarbamoyl]-ethyl}-3-methyl-benzamide]: the “Selectivity for Cat. S over Cat. K” value at Cathepsin K is “++ (++, >100)”. Further, the Ki on Cathepsin S is under 0.1 µM.
On to `COc1ccc(CC(=O)N[C@@H](CC2CCCCC2)C(=O)NCCNc2ccc(F)cc2)cc1` [Compound 301, 3-Cyclohexyl-N-[2-(4-fluoro-phenylamino)-ethyl]-2-(S)-[2-(4-methoxy-phenyl)-acetylamino]-propionamide], for which the “Selectivity for Cat. S over Cat. K” value at Cathepsin K is listed as “++ (++, >100)”. Besides, the Ki at Cathepsin S is under 0.1 µM.
As for `O=C(Cc1cccc(Cl)c1)N[C@@H](CC1CCCCC1)C(=O)NCCNc1ccc(F)cc1` [Compound 302, 2-(S)-[2-(3-Chloro-phenyl)-acetylamino]-3-cyclohexyl-N-[2-(4-fluoro-phenylamino)-ethyl]-propionamide], at Cathepsin K, the “Selectivity for Cat. S over Cat. K” value is “++ (++, >100)”. Moreover, at Cathepsin S, the Ki is under 0.1 µM.
For the compound `O=C(Cc1ccccc1)N[C@@H](CC1CCCCC1)C(=O)NCCNc1ccc(F)cc1` [Compound 303, 3-Cyclohexyl-N-[2-(4-fluoro-phenylamino)-ethyl]-2-(S)-phenylacetylamino-propionamide], the “Selectivity for Cat. S over Cat. K” value on Cathepsin K is “++ (++, >100)”. In addition, on Cathepsin S, the Ki was under 0.1 µM.
Consider `Cc1ccccc1CC(=O)N[C@@H](CC1CCCCC1)C(=O)NCCNc1ccc(F)cc1` [Compound 304, 3-Cyclohexyl-N-[2-(4-fluoro-phenylamino)-ethyl]-2-(S)-(2-o-tolyl-acetylamino)-propionamide], for which the “Selectivity for Cat. S over Cat. K” value at Cathepsin K is reported as “+++ (+++, >1000)”. Also, the Ki at Cathepsin S was under 0.1 µM.
Consider `O=C(Cc1ccc(Cl)cc1)N[C@@H](CC1CCCCC1)C(=O)NCCNc1ccc(F)cc1` [Compound 305, 2-(S)-[2-(4-Chloro-phenyl)-acetylamino]-3-cyclohexyl-N-[2-(4-fluoro-phenylamino)-ethyl]-propionamide], for which, at Cathepsin K, the “Selectivity for Cat. S over Cat. K” value was “++ (++, >100)”. Also, the Ki at Cathepsin S is under 0.1 µM.
Turning to `O=C(Cc1ccccc1F)N[C@@H](CC1CCCCC1)C(=O)NCCNc1ccc(F)cc1` [Compound 306, 3-Cyclohexyl-2-(S)-[2-(2-fluoro-phenyl)-acetylamino]-N-[2-(4-fluoro-phenylamino)-ethyl]-propionamide], the “Selectivity for Cat. S over Cat. K” value at Cathepsin K was “+++ (+++, >1000)”. The Ki at Cathepsin S is under 0.1 µM.
On to `O=C(N[C@@H](CC1CCCCC1)C(=O)NCCNc1ccc(F)cc1)C(c1ccccc1)c1ccccc1` [Compound 307, 3-Cyclohexyl-2-(S)-diphenylacetylamino-N-[2-(4-fluoro-phenylamino)-ethyl]-propionamide], for which the “Selectivity for Cat. S over Cat. K” value on Cathepsin K is recorded as “+++ (+++, >1000)”. Also, the Ki on Cathepsin S is under 0.1 µM.
`CC(C(=O)NC(CC1CCCCC1)C(=O)NCCNc1ccc(F)cc1)c1ccc(-c2ccccc2)c(F)c1` [Compound 308, N-(S)-{2-cyclohexyl-1-[2-(4-fluoro-phenylamino)-ethylcarbamoyl]-ethyl}-2-(2-fluoro-biphenyl-4-yl)-propionamide]: the “Selectivity for Cat. S over Cat. K” value on Cathepsin K is “++ (++, >100)”. The Ki on Cathepsin S is under 0.1 µM.
On to `Cc1ccc(C(C)C(=O)N[C@@H](CC2CCCCC2)C(=O)NCCNc2ccc(F)cc2)cc1` (stereo partly drawn) [Compound 309, N-{2-cyclohexyl-1-(S)-[2-(4-fluoro-phenylamino)-ethylcarbamoyl]-ethyl}-2-p-tolyl-propionamide], for which the “Selectivity for Cat. S over Cat. K” value on Cathepsin K is “++ (++, >100)”. Further, the Ki on Cathepsin S is under 0.1 µM.
Take `CC(C(=O)N[C@@H](CC1CCCCC1)C(=O)NCCNc1ccc(F)cc1)c1ccc(F)cc1` (stereo partly drawn) [Compound 310, N-{2-cyclohexyl-1-(S)-[2-(4-fluoro-phenylamino)-ethylcarbamoyl]-ethyl}-2-(4-fluoro-phenyl)-propionamide]: the “Selectivity for Cat. S over Cat. K” value at Cathepsin K is given as “++ (++, >100)”. In addition, the Ki at Cathepsin S was under 0.1 µM.
In the case of `CC(C(=O)N[C@@H](CC1CCCCC1)C(=O)NCCNc1ccc(F)cc1)c1ccc(O)cc1` (stereo partly drawn) [Compound 311, N-{2-cyclohexyl-1-(S)-[2-(4-fluoro-phenylamino)-ethylcarbamoyl]-ethyl}-2-(4-hydroxy-phenyl)-propionamide], the “Selectivity for Cat. S over Cat. K” value on Cathepsin K is on record as “+ (+, >10)”. The Ki at Cathepsin S was under 0.1 µM.
As to `CC(C(=O)N[C@@H](CC1CCCCC1)C(=O)NCCNc1ccc(F)cc1)c1ccc(Cl)cc1` (stereo partly drawn) [Compound 312, 2-(4-Chloro-phenyl)-N-{2-cyclohexyl-1-(S)-[2-(4-fluoro-phenylamino)-ethylcarbamoyl]-ethyl}-propionamide], the “Selectivity for Cat. S over Cat. K” value at Cathepsin K is recorded as “++ (++, >100)”. Further, at Cathepsin S, the Ki is under 0.1 µM.
Regarding `CS(=O)(=O)c1ccc(C(=O)N[C@@H](CC2CCCCC2)C(=O)NCCNc2ccc(F)cc2)cc1` [Compound 313, N-(S)-{2-cyclohexyl-1-[2-(4-fluoro-phenylamino)-ethylcarbamoyl]-ethyl}-4-methanesulfonyl-benzamide], at Cathepsin K, the “Selectivity for Cat. S over Cat. K” value is reported as “+ (+, >10)”. In addition, the Ki on Cathepsin S was under 1 µM.
As to `O=C(N[C@@H](CC1CCCCC1)C(=O)NCCNc1ccc(F)cc1)c1cscn1` [Compound 314, Thiazole-4-carboxylic acid (S)-{2-cyclohexyl-1-[2-(4-fluoro-phenylamino)-ethylcarbamoyl]-ethyl}-amide], at Cathepsin K, the “Selectivity for Cat. S over Cat. K” value is recorded as “+ (+, >10)”. The Ki on Cathepsin S was under 0.1 µM.
Turning to `C[C@@H](C(=O)N[C@@H](CC1CCCCC1)C(=O)NCCNc1ccc(F)cc1)c1ccccc1` [Compound 315, N-{2-cyclohexyl-1-(S)-[2-(4-fluoro-phenylamino)-ethylcarbamoyl]-ethyl}-2-(R)-phenyl-propionamide], the “Selectivity for Cat. S over Cat. K” value on Cathepsin K is given as “++ (++, >100)”. At Cathepsin S, the Ki was under 0.1 µM.
With `N#Cc1ccc(C(=O)N[C@@H](CC2CCCCC2)C(=O)NCCNc2ccc(F)cc2)cc1` [Compound 316, 4-Cyano-N-(S)-{2-cyclohexyl-1-[2-(4-fluoro-phenylamino)-ethylcarbamoyl]-ethyl}-benzamide], the “Selectivity for Cat. S over Cat. K” value at Cathepsin K is listed as “++ (++, >100)”. The Ki on Cathepsin S is under 0.1 µM.
As to `O=C(NCCNc1ccc(F)cc1)[C@H](CC1CCCCC1)NC(=O)[C@H](O)c1ccccc1` [Compound 317, 3-Cyclohexyl-N-[2-(4-fluoro-phenylamino)-ethyl]-2-(S)-(2-(R)-hydroxy-2-phenyl-acetylamino)-propionamide], on Cathepsin K, the “Selectivity for Cat. S over Cat. K” value is recorded as “++ (++, >100)”. The Ki at Cathepsin S was under 0.1 µM.
For `CC[C@@H](C(=O)N[C@@H](CC1CCCCC1)C(=O)NCCNc1ccc(F)cc1)c1ccccc1` [Compound 318, N-{2-cyclohexyl-1-(S)-[2-(4-fluoro-phenylamino)-ethylcarbamoyl]-ethyl}-2-(R)-phenyl-butyramide], the “Selectivity for Cat. S over Cat. K” value at Cathepsin K was “+ (+, >10)”. In addition, the Ki on Cathepsin S was under 0.1 µM.
Regarding `O=C(NCCNc1ccc(F)cc1)[C@H](CC1CCCCC1)NC(=O)C1(c2ccccc2)CC1` [Compound 319, 1-Phenyl-cyclopropanecarboxylic acid (S)-{2-cyclohexyl-1-[2-(4-fluoro-phenylamino)-ethylcarbamoyl]-ethyl}-amide], the “Selectivity for Cat. S over Cat. K” value at Cathepsin K is reported as “++ (++, >100)”. Also, the Ki on Cathepsin S is under 0.1 µM.
Take `N#Cc1cccc(C(=O)N[C@@H](CC2CCCCC2)C(=O)NCCNc2ccc(F)cc2)c1` [Compound 321, 3-Cyano-N-(S)-{2-cyclohexyl-1-[2-(4-fluoro-phenylamino)-ethylcarbamoyl]-ethyl}-benzamide]: the “Selectivity for Cat. S over Cat. K” value at Cathepsin K is “++ (++, >100)”. Besides, the Ki on Cathepsin S was under 1 µM.
`O=C(N[C@@H](CC1CCCCC1)C(=O)NCCNc1ccc(F)cc1)c1ccc(-c2ccc(F)cc2)o1` [Compound 322, 5-(4-Fluoro-phenyl)-furan-2-carboxylic acid (S)-{2-cyclohexyl-1-[2-(4-fluoro-phenylamino)-ethylcarbamoyl]-ethyl}-amide]: at Cathepsin K, the “Selectivity for Cat. S over Cat. K” value is “++ (++, >100)”. Also, the Ki at Cathepsin S was under 0.1 µM.
With `O=C(Cc1cccc(C(F)(F)F)c1)N[C@@H](CC1CCCCC1)C(=O)NCCNc1ccc(F)cc1` [Compound 323, 3-Cyclohexyl-N-[2-(4-fluoro-phenylamino)-ethyl]-2-(S)-[2-(3-trifluoromethyl-phenyl)-acetylamino]-propionamide], the “Selectivity for Cat. S over Cat. K” value on Cathepsin K is recorded as “++ (++, >100)”. At Cathepsin S, the Ki is under 0.1 µM.
